Square brackets hold non-standard residues; d marks the D form. Peptide text beside a SMILES is read from it. Ava = NCCCCC(=O)O
How the values were obtained:
ανβ3 receptor = molecular target: T1, ανβ3 receptor (Homo sapiens, UniProt P05106+P06756); test: whole cell adhesion inhibition assay (HBEC cells on vitronectin-coated plates); format: cell-based; details: for inhibition of HBEC adhesion (in words): 100 uM
T1 construct: endothelial cells known to express ανβ3 receptors on their surface (HBEC cells); endogenous in cells; host or cells: HBEC endothelial cells
Description: Biological Assay Studies: A biological whole cell adhesion inhibition assay was developed to evaluate the synthesized macrocyclic RGD mimetics. This assay uses endothelial cells known to express ανβ3 receptors on their surface (HBEC cells) and also known to require vitronectin binding at the ανβ3 receptor to initiate adhesion processes. Vitronectin was coated on microtiter plates and exposed to cell suspensions. As the target molecules prepared herein compete with vitronectin for binding at the ανβ3 they will interfere with the adhesion process. This can be used to quantify/rank their ability to do so. The amount of ανβ3 mediated adhesion was determined by cell staining with subsequent quantitation by UV absorption proportional to the amount of stain present. This test procedure has been optimized with regard to vitronectin quantities, cell numbers, volumes, times, and the cell staining process.

Leydig cell tumor = details: mouse-based Leydig cell tumor model; cited from earlier work

T1 sequence (P06756 31-889 limits assumed): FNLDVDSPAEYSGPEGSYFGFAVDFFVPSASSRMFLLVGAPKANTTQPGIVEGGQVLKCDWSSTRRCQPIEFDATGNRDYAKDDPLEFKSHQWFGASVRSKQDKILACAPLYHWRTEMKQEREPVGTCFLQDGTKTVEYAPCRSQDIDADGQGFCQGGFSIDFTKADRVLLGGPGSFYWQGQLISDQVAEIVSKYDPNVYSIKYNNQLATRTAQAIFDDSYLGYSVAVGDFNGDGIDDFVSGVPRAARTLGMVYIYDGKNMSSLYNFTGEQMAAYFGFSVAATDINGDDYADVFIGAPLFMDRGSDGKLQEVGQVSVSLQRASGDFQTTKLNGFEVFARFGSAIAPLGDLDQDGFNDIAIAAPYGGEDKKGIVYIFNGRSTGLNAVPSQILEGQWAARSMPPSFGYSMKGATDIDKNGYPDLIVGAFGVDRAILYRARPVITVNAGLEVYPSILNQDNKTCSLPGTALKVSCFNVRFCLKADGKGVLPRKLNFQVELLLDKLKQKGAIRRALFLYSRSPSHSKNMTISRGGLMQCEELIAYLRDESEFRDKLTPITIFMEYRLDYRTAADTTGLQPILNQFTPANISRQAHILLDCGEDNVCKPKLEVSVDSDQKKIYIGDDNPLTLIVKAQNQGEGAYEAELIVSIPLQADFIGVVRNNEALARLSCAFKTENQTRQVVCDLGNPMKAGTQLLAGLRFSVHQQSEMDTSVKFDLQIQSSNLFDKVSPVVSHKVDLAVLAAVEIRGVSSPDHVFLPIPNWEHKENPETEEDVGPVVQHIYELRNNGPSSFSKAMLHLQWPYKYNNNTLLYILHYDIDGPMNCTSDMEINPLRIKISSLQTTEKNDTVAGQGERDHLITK
T1 sequence (P06756 891-1048 partner limits assumed): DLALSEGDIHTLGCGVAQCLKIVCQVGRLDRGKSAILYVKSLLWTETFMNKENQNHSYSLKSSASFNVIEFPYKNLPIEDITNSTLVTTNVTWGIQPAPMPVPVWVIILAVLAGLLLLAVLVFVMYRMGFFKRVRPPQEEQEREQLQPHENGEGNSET
T1 sequence (P05106 27-788): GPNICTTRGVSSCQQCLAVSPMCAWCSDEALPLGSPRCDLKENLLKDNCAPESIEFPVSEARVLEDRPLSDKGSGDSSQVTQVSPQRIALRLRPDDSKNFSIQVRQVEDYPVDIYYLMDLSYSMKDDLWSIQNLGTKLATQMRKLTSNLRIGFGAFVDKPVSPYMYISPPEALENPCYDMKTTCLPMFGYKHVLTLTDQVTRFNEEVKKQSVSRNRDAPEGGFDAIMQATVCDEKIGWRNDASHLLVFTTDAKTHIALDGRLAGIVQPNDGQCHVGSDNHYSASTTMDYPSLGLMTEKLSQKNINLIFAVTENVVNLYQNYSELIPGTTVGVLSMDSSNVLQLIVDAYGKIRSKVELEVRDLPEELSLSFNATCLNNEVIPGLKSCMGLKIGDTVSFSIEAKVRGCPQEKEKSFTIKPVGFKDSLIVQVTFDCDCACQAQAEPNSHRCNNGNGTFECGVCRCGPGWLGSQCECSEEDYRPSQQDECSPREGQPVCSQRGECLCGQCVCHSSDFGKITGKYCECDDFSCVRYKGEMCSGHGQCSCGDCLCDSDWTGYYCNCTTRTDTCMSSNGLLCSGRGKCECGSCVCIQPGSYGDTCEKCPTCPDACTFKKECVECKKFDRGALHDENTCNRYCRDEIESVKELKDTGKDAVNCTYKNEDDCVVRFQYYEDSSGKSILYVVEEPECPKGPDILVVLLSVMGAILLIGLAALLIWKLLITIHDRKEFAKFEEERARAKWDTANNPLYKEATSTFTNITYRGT

Row | Compound | inhibition of HBEC adhesion (in words) (ανβ3 receptor) | decrease in amount of adhesion (ανβ3 receptor; 20 uMolar) [%] | reduction in tumor growth (Leydig cell tumor)
1 | [H]/N=C(/N)NCCCC(N)C(=O)NCC(=O)NC(CC(=O)O)C(=O)NC(CO)C(=O)O (stereo not shown) [RGDS] | decreased it completely | 69 | –
2 | NC(N)=Nc1cccc(C(=O)NCC(=O)NC(CC(=O)O)c2cc(Cl)cc(Cl)c2)c1 (stereo not shown) [SC-68448] | – | – | up to 80%
3 | NCCCCC(=O)NCC(=O)NC(CC(=O)O)C(=O)NC(CO)C(=O)O (stereo not shown) [lot A015-82PBS] (H-[Ava]GDS-OH; configuration not given here) | completely inactive | – | –

— patent US20070104645A1, “Chelate based scaffolds in tumor targeting” (priority 2003, published 2007)
